The term Ki denotes the equilibrium dissociation constant of an inhibitor or competing ligand from its target. Read a low Ki as higher affinity.

Bounds are passed on as bounds.

The first assay is filed under the species Rattus norvegicus. The experiment in a line: Minimum effective dose required in the catalepsy experiment in rats. Particulars: read-out: MED. Format: functional.
As for `O=C(CCCN1CCC(O)(c2ccc(Cl)cc2)CC1)c1ccc(F)cc1` [HALOPERIDOL], the minimal effective dose is 0.5 mg/kg.

For the next assay, the species on record is Rattus norvegicus. The experiment in a line: Minimum effective dose required in the catalepsy experiment in rats; showed no significant effect at this dose. Format: functional. Particulars: read-out: MED.
As to `CN1CCN(C2=Nc3cc(Cl)ccc3Nc3ccccc32)CC1` [CLOZAPINE], the minimal effective dose was more than 40 mg/kg.

In a further assay the test system is Rattus norvegicus. The experiment in a line: Minimum effective dose required for significant dose dependent reduction of amphetamine-induced locomotor activity in male Sprague-Dawley rats on subcutaneous administration (30 min prior to receiving amphetamine 0.5 mg/kg). Format: functional. Particulars: sc, read-out: MED.
In the case of `COc1cc(Cl)ccc1CN1CCN(CC(=O)N2c3ccccc3C[C@H]2C)CC1`, the minimal effective dose was more than 4 mg/kg.

Turning to `C[C@@H]1Cc2ccccc2N1C(=O)CN1CCN(Cc2ccc(Cl)cc2)CC1`, the minimal effective dose is more than 8 mg/kg.

`Cc1ccc(CN2CCN(CC(=O)N3c4ccccc4C[C@H]3C)CC2)cc1`: the minimal effective dose is more than 4 mg/kg.

Take `CN1CCN(C2=Nc3cc(Cl)ccc3Nc3ccccc32)CC1` [CLOZAPINE]: the minimal effective dose was 1 mg/kg.

Regarding `O=C(CCCN1CCC(O)(c2ccc(Cl)cc2)CC1)c1ccc(F)cc1` [HALOPERIDOL], the minimal effective dose came to 0.06 mg/kg.

For a further assay, the target named is T1, Adrenergic receptor alpha-1 (Rattus norvegicus, UniProt P15823+P23944+P43140).
T1 sequence (P15823 whole entry): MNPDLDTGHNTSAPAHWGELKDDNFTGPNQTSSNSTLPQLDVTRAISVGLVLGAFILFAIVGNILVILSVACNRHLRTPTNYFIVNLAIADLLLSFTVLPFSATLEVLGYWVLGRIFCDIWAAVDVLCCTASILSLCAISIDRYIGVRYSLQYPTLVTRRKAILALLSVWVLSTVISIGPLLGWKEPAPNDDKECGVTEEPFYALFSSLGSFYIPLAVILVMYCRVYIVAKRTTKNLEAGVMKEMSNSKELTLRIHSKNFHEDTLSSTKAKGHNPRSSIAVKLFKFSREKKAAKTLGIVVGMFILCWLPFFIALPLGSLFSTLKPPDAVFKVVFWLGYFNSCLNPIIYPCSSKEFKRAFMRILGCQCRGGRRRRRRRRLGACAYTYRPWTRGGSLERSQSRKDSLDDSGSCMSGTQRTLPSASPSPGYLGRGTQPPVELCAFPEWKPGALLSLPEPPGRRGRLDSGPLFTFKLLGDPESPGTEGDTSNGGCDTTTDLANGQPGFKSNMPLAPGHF
T1 sequence (P23944 whole entry): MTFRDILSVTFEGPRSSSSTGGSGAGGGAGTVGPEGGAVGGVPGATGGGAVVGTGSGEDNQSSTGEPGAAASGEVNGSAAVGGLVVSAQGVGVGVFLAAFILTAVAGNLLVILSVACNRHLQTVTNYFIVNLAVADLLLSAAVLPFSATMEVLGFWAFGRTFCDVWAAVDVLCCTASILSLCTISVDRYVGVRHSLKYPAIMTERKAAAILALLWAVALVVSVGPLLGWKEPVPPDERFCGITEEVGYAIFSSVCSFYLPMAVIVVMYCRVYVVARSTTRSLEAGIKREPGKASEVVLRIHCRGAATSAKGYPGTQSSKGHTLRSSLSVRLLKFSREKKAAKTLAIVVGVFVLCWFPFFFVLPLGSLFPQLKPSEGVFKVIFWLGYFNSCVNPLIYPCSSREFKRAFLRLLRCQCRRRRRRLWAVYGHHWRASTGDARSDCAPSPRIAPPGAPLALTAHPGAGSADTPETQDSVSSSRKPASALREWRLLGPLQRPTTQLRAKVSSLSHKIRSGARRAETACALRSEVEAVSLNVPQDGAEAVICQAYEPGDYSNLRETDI
T1 sequence (P43140 whole entry): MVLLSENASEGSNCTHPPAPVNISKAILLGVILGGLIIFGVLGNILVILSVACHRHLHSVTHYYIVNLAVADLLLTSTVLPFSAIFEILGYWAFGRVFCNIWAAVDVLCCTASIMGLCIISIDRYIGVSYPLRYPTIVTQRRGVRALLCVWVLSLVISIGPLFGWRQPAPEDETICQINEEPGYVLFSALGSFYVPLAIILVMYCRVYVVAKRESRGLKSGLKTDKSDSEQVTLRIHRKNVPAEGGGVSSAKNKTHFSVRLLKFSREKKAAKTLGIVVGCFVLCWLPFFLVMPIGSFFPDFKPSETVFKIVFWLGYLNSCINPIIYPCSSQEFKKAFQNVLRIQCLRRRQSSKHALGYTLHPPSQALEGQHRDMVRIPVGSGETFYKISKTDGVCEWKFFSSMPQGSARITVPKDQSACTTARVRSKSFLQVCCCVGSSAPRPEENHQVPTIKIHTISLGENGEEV
The experiment in a line: Binding affinity towards Alpha-1 adrenergic receptor was determined by competitive displacement assays using rat brain homogenate with [3H]prazosin as the competitive ligand. Format: tissue-based.
Settings: not given
Take `C[C@@H]1Cc2ccccc2N1C(=O)CN1CCN(Cc2cc(F)c(Cl)cc2F)CC1`: the Ki was more than 10 µM.

`COc1ccc(Cl)cc1CN1CCN(CC(=O)N2c3ccccc3C[C@H]2C)CC1` gave a Ki of 0.98 µM.

For `COC(=O)[C@@H]1Cc2ccccc2N1C(=O)CN1CCN(Cc2ccc(C)cc2)CC1`, the Ki amounted to 0.1 µM. This Ki is about 9.8-fold lower than that of the compound before.

Regarding `O=C(O)[C@@H]1Cc2ccccc2N1C(=O)CN1CCN(Cc2ccc(Cl)cc2)CC1`, the inhibition constant (Ki) is 0.453 µM.

As for `COc1cc(Cl)ccc1CN1CCN(CC(=O)N2c3ccccc3C[C@H]2C)CC1`, the Ki came to 1.06 µM.

Consider `COC(=O)[C@@H]1Cc2ccccc2N1C(=O)CN1CCN(Cc2ccc(Cl)cc2)CC1`, for which the Ki was more than 1 µM.

`C[C@@H]1Cc2ccccc2N1C(=O)CN1CCN(Cc2ccccc2F)CC1` had an inhibition constant (Ki) of more than 10 µM.

`Cc1ccc(CN2CCN(CC(=O)N3c4ccccc4C[C@H]3C)CC2)cc1F` registered a Ki of 0.807 µM.

Turning to `COc1ccc(OC)c(CN2CCN(CC(=O)N3c4ccccc4C[C@H]3C)CC2)c1`, the affinity corresponds to a Ki of 1.66 µM.

The compound `C[C@@H]1Cc2ccccc2N1C(=O)CN1CCN(Cc2ccc(F)c(F)c2Cl)CC1` gave an inhibition constant (Ki) of more than 1 µM.

As for `CC[C@@H]1Cc2ccccc2N1C(=O)CN1CCN(Cc2ccc(C)cc2)CC1`, the Ki stood at 1.33 µM.

Take `C[C@@H]1Cc2ccccc2N1C(=O)CN1CCN(Cc2ccc3c(c2)OCO3)CC1`: the Ki came to 1.13 µM.

Compound `CCOc1ccc(Cl)cc1CN1CCN(CC(=O)N2c3ccccc3C[C@H]2C)CC1` showed a Ki of 1.09 µM.

In turn, `C=C[C@@H]1Cc2ccccc2N1C(=O)CN1CCN(Cc2ccc(Cl)cc2)CC1` registered a Ki of 2.18 µM.

The target in the next assay is T2, D(4) dopamine receptor (Homo sapiens, UniProt P21917).
T2 sequence (P21917 whole entry): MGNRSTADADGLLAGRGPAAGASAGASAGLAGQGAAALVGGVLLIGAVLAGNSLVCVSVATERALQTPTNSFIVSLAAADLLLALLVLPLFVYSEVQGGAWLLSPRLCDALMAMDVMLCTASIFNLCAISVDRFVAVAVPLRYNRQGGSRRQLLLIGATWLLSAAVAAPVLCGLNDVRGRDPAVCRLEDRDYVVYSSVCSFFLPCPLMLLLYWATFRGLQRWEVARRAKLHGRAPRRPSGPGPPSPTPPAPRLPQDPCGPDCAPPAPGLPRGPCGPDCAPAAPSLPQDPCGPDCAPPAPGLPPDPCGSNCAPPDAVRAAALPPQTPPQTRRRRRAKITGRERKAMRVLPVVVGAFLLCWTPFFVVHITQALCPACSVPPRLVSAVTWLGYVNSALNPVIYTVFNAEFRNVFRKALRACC
Settings: not given
For the compound `C[C@@H]1Cc2ccccc2N1C(=O)CN1CCN(Cc2cc(F)c(Cl)cc2F)CC1`, the Ki is 0.006 µM.

In the case of `COc1ccc(Cl)cc1CN1CCN(CC(=O)N2c3ccccc3C[C@H]2C)CC1`, affinity was put at a Ki of 0.005 µM. The Ki values of the last two compounds are within 1.5-fold of each other.

`C[C@@H]1Cc2ccccc2N1C(=O)CN1CCN(Cc2cccc(F)c2)CC1` had a Ki of 0.006 µM.

Turning to `COC(=O)[C@@H]1Cc2ccccc2N1C(=O)CN1CCN(Cc2ccc(C)cc2)CC1`, the Ki is 0.008 µM. This Ki and that of the compound before are within 1.5-fold of each other.

With `O=C(O)[C@@H]1Cc2ccccc2N1C(=O)CN1CCN(Cc2ccc(Cl)cc2)CC1`, the inhibition constant (Ki) was found to be 1.76 µM.

The compound `COc1cc(Cl)ccc1CN1CCN(CC(=O)N2c3ccccc3C[C@H]2C)CC1` returned a Ki of 0.003 µM.

Compound `COC(=O)[C@@H]1Cc2ccccc2N1C(=O)CN1CCN(Cc2ccc(Cl)cc2)CC1` yielded an inhibition constant (Ki) of 0.005 µM.

As to `O=C(NCc1ccccc1)[C@@H]1Cc2ccccc2N1C(=O)CN1CCN(Cc2ccc(Cl)cc2)CC1`, the Ki was more than 1 µM.

As to `CC(C)c1ccc(Cl)cc1CN1CCN(CC(=O)N2c3ccccc3C[C@H]2C)CC1`, the Ki came to 0.01 µM.

`C[C@@H]1Cc2ccccc2N1C(=O)CN1CCN(Cc2ccccc2F)CC1` returned a Ki of 0.027 µM.

The compound `Cc1ccc(CN2CCN(CC(=O)N3c4ccccc4C[C@H]3C)CC2)cc1F` came in with an inhibition constant (Ki) of 0.002 µM.

For the compound `COc1ccc(OC)c(CN2CCN(CC(=O)N3c4ccccc4C[C@H]3C)CC2)c1`, affinity was put at a Ki of 0.029 µM.

Turning to `C[C@@H]1Cc2ccccc2N1C(=O)CN1CCN(Cc2ccc(F)c(F)c2Cl)CC1`, the Ki turned out to be 0.012 µM.

For the compound `CC[C@@H]1Cc2ccccc2N1C(=O)CN1CCN(Cc2ccc(C)cc2)CC1`, the affinity corresponds to a Ki of 0.003 µM.

For the compound `C[C@@H]1Cc2ccccc2N1C(=O)CN1CCN(Cc2ccc3c(c2)OCO3)CC1`, the Ki worked out at 0.003 µM. This counts as single-digit nanomolar.

As for `CCOc1ccc(Cl)cc1CN1CCN(CC(=O)N2c3ccccc3C[C@H]2C)CC1`, the Ki was found to be 0.011 µM.

(Values after ChEMBL document CHEMBL1134937, “Indoline and piperazine containing derivatives as a novel class of mixed D(2)/D(4) receptor antagonists. Part 2: asymmetric synthesis and biological evaluation” (Bioorg Med Chem Lett, 2002).)
